Entries after “also recorded” stand apart in the source; their conditions may differ. Like-named read-outs stand apart in the source and are kept apart here.
Legend:
human NAT1 = molecular target: T1, human NAT1 (Homo sapiens, UniProt P18440); experiment: N-acetylation by recombinant human NAT1; type: in vitro ADME; details: for % Conversion NAT1: compound 100 μM, 37° C., 120 min, N-acyl product by HPLC; for susceptibility to N-acetylation by NAT1, in words: human recombinant NAT1
T1 construct: purchased BD Gentest (Bedford, Mass.); host or cells: insect cells
T1 sequence (P18440 1-290): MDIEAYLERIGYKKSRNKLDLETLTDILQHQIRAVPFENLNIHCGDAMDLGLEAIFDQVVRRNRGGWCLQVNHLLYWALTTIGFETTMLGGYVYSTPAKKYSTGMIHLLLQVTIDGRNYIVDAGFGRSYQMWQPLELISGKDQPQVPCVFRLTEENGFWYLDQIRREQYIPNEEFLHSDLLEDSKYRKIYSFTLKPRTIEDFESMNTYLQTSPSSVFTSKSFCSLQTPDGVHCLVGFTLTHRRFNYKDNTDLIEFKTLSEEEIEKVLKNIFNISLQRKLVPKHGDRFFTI
Experimental: (§1) Insect cell-expressed human NAT1 and NAT2 and control insect cytosol were obtained from BD Gentest (Bedford, Mass.). Compounds (100 μM) were incubated in 0.25 mL of NAT reaction cocktail consisting of 25 mM potassium phosphate pH 7.4 (at 25° C.), 1 mM EDTA, 1 mM DTT, 0.5 mM acetyl CoA, 5 mM acetyl-DL-carnitine, 20 u/mL acetyltransferase and either NAT1, NAT2 or control insect cytosol (0.1 mg/mL). Reactions were performed in an Eppendorf Thermomixer (37° C., 120 min.). At 0 and 120 min., 100 μl of each reaction was removed and added to a clean 1.7 mL tube containing 150 μl of 100% methanol. The tubes were vortexed and centrifuged at 14,000 rpm for 10 min. in an Eppendorf microcentrifuge (room temperature, 5 min., 14,000 rpm). The supernatants were analyzed by HPLC (Agilent 1100 series) using a Phenosphere C18 column (5 micron, 150×4.6 mm). The column was equilibrated with 20 mM potassium phosphate pH 4.5 or pH 6.2 (at 25° C.) and eluted with a linear gradient to 80% acetonitrile. The percent conversion of the compounds was calculated from the following equation: area of N-acyl product divided by (area of compound+area of N-acyl product), multiplied by 100.

human liver FBPase = molecular target: T2, human liver FBPase (Homo sapiens, UniProt P09467); experiment: Inhibition of human liver FBPase; type: biochemical; details: purified recombinant human liver FBPase, 0.150 mM fructose 1,6-bisphosphate, 37° C.; read-out: IC50 (hlFBPase)
T2 construct: made in house; host or cells: E. coli BL21
T2 sequence (P09467 2-338 limits assumed): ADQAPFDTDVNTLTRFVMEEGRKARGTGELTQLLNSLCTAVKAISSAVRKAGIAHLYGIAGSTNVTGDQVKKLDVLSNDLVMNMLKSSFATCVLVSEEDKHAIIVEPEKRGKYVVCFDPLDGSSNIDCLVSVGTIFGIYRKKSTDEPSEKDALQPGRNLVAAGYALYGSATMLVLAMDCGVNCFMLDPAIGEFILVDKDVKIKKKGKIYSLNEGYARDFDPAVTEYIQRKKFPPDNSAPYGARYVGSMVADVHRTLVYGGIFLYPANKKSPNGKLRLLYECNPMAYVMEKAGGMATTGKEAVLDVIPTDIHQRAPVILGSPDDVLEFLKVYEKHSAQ
Experimental: E. coli strain BL21 transformed with a human liver FBPase-encoding plasmid was obtained from Dr. M. R. El-Maghrabi at the State University of New York at Stony Brook. […] Enzymatic activity was measured spectrophotometrically in reactions that coupled the formation of product (fructose 6-phosphate) to the reduction of dimethylthiazoldiphenyltetrazolium bromide (MTT) via NADP^+ and phenazine methosulfate (PMS), using phosphoglucose isomerase and glucose 6-phosphate dehydrogenase as the coupling enzymes. Reaction mixtures (200 μl) were made up in 96-well microtitre plates, and consisted of 50 mM Tris-HCl, pH 7.4, 100 mM KCl, 5 mM EGTA, 2 mM MgCl2, 0.2 mM NADP, 1 mg/ml BSA, 1 mM MTT, 0.6 mM PMS, 1 unit/ml phosphoglucose isomerase, 2 units/ml glucose 6-phosphate dehydrogenase, and 0.150 mM substrate (fructose 1,6-bisphosphate). Inhibitor concentrations were varied from 0.01 μM to 10 μM. Reactions were started by the addition of 0.002 units of pure hlFBPase, and were monitored for 7 min. at 590 nm in a Molecular Devices Plate Reader (37° C.).

rat liver FBPase = molecular target: T3, rat liver FBPase (Rattus norvegicus, UniProt P19112); experiment: Inhibition of rat liver FBPase; type: biochemical; details: partially purified rat liver FBPase; read-out: IC50 (rlFBPase)
T3 construct: This partially purified fraction was used for enzyme assays; from tissue; host or cells: rat liver (45-75% ammonium sulfate fraction of the homogenate)
T3 sequence (P19112 2-363 limits assumed): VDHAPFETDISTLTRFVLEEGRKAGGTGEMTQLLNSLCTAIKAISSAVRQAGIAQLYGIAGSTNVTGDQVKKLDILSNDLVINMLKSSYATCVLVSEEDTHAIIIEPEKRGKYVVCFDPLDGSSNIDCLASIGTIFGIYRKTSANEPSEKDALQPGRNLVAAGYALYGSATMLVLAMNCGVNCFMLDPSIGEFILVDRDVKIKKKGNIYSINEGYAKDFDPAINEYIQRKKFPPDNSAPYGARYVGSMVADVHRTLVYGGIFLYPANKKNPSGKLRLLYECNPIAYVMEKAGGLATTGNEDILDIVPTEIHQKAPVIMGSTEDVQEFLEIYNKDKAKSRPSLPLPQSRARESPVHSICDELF
Experimental: Rat liver FBPase was obtained by homogenizing freshly isolated rat liver in 100 mM Tris-HCl buffer, pH 7.4, containing 1 mM EGTA, and 10% glycerol. The homogenate was clarified by centrifugation, and the 45-75% ammonium sulfate fraction prepared. This fraction was redissolved in the homogenization buffer and desalted on a PD-10 gel filtration column (Biorad) eluted with same. This partially purified fraction was used for enzyme assays.

[1] = Variability of N-acetylation in human liver S9 fractions; type: in vitro ADME; details: 100 μM, S9 10 mg/mL protein; donors with high or low N-acetylase activity
Experimental: The reactions are incubated, processed, and analyzed as described in Example C.

human NAT2 [2] = molecular target: T4, human NAT2 (Homo sapiens, UniProt P11245); details: human, 120 min, 100 μM, pH 7.4
T4 sequence (P11245 1-290): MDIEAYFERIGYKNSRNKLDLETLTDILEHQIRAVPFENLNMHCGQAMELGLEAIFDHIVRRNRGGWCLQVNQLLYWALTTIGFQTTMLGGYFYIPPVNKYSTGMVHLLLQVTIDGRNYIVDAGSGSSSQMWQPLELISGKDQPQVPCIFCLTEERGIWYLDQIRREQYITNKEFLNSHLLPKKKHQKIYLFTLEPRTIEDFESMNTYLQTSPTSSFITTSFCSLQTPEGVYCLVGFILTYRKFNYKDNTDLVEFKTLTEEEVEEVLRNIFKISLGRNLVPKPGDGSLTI
Experimental: as §1

human NAT2 [3] = molecular target: T4, human NAT2; experiment: N-acetylation by recombinant human NAT2
Experimental: as §1

% Conversion NAT1 (human NAT1) [%]	susceptibility to N-acetylation by NAT1, in words (human NAT1)	IC50 (human liver FBPase) [µM]	IC50 (rat liver FBPase) [µM]	conversion to N-acetylated metabolite in human liver S9 from various donors [1]	% Conversion NAT2 (human NAT2 [2]) [%]	% Conversion NAT2 (human NAT2 [3]; compound 100 μM, 37° C., 120 min, N-acyl product by HPLC) [%]	susceptibility to N-acetylation by NAT2, in words (human NAT2 [3]; human recombinant NAT2)	SMILES
22.4	highly susceptible	0.012	0.092					CC(C)(C)Cc1sc(N)nc1-c1ccc(P(=O)(O)O)o1 [Compound 3.1, reference compound]
51	highly susceptible		0.14	high levels	5.9			CC(C)Cc1sc(N)nc1-c1ccc(P(=O)(O)O)o1 [Compound 3.6, reference compound]

SMILES	% Conversion NAT1 (human NAT1) [%]	susceptibility to N-acetylation by NAT1, in words (human NAT1)	IC50 (human liver FBPase) [µM]	IC50 (rat liver FBPase) [µM]	conversion to N-acetylated metabolite in human liver S9 from various donors [1]	% Conversion NAT2 (human NAT2 [2]) [%]	% Conversion NAT2 (human NAT2 [3]; compound 100 μM, 37° C., 120 min, N-acyl product by HPLC) [%]	susceptibility to N-acetylation by NAT2, in words (human NAT2 [3]; human recombinant NAT2)
CC(C)(C)C(=O)c1sc(N)nc1-c1ccc(P(=O)(O)O)o1 [Compound 1.1, {5-[2-amino-5-(2,2-dimethylpropionyl)thiazol-4-yl]-furan-2-yl}phosphonic acid]	0	not metabolized; also recorded: insusceptible	0.031	0.189	no conversion		0	insusceptible

Source: US20080070868A1, “Novel Thiazole Inhibitors of Fructose 1,6-bisphosphatase” (Metabasis Therapeutics, Inc., priority 2004, published 2008)
